Measured values: PubChem BioAssay (NCI)
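In this assay, cells in 96-well plates receive the compound at five concentrations for 48 hours. Endpoints are linearly interpolated between the surrounding concentrations. Here, GI50 denotes the concentration required for 50% inhibition of growth. Definition used: TGI = concentration required for complete inhibition of growth.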

Columns and labels:
Assay in all cases: NCI anticancer screen, dose series, 48 h; in the data active = GI50 below about 0.43 µM; inactive = the rest
[1] = test system: 786-0 renal
[2] = test system: A498 renal
[3] = test system: A549 NSCLC
[4] = test system: ACHN renal
[5] = test system: BT-549 breast
[6] = test system: CAKI-1 renal
[7] = test system: CCRF-CEM leukemia
[8] = test system: COLO 205 colon
[9] = test system: DU-145 prostate
[10] = test system: HCC-2998 colon
[11] = test system: HCT-116 colon
[12] = test system: HCT-15 colon
[13] = test system: HL-60(TB) leukemia
[14] = test system: HOP-62 NSCLC
[15] = test system: HOP-92 NSCLC
[16] = test system: HS 578T breast
[17] = test system: HT29 colon
[18] = test system: IGROV1 ovarian
[19] = test system: K-562 leukemia
[20] = test system: KM12 colon
[21] = test system: LOX IMVI melanoma
[22] = test system: M14 melanoma
[23] = test system: MALME-3M melanoma
[24] = test system: MCF7 breast
[25] = test system: MDA-MB-231 breast
[26] = test system: MDA-MB-435
[27] = test system: MDA-N
[28] = test system: MOLT-4 leukemia
[29] = test system: NCI-H226 lung
[30] = test system: NCI-H23 lung
[31] = test system: NCI-H460 lung
[32] = test system: NCI-H522 lung
[33] = test system: NCI/ADR-RES ovarian
[34] = test system: OVCAR-3 ovarian
[35] = test system: OVCAR-4 ovarian
[36] = test system: OVCAR-5 ovarian
[37] = test system: OVCAR-8 ovarian
[38] = test system: PC-3 prostate
[39] = test system: RPMI-8226 leukemia
[40] = test system: RXF 393 renal
[41] = test system: SF-268 CNS
[42] = test system: SF-295 CNS
[43] = test system: SF-539 CNS
[44] = test system: SK-MEL-2 melanoma
[45] = test system: SK-MEL-28 melanoma
[46] = test system: SK-MEL-5 melanoma
[47] = test system: SK-OV-3 ovarian
[48] = test system: SN12C renal
[49] = test system: SNB-19 CNS
[50] = test system: SNB-75 CNS
[51] = test system: SW-620 colon
[52] = test system: T-47D breast
[53] = test system: TK-10 renal
[54] = test system: U251 CNS
[55] = test system: UACC-257 melanoma
[56] = test system: UACC-62 melanoma
[57] = test system: UO-31 renal
[58] = test system: EKVX NSCLC
[59] = test system: SR leukemia

Nc1ncnc2c1cnn2Cc1ccc(Cl)cc1
inactive: GI50 [1] > 100 µM | GI50 [5] 72.1 µM | GI50 [6] 31.8 µM | GI50 [14] > 100 µM | GI50 [18] > 100 µM | GI50 [23] > 100 µM | GI50 [36] 44.8 µM | GI50 [39] > 100 µM | GI50 [43] 67.4 µM | GI50 [44] > 100 µM | GI50 [45] 74.8 µM | GI50 [47] > 100 µM | GI50 [56] > 100 µM
> 92.5 µM: TGI [15]
> 100 µM: TGI [1] | TGI [3] | TGI [4] | TGI [5] | TGI [6] | TGI [7] | TGI [8] | TGI [9] | TGI [10] | TGI [11] | TGI [12] | TGI [13] | TGI [14] | TGI [16] | TGI [17] | TGI [18] | TGI [19] | TGI [20] | TGI [21] | TGI [22] | TGI [23] | TGI [24] | TGI [25] | TGI [26] | TGI [27] | TGI [28] | TGI [29] | TGI [30] | TGI [31] | TGI [32] | TGI [33] | TGI [34] | TGI [35] | TGI [36] | TGI [37] | TGI [38] | TGI [39] | TGI [40] | TGI [41] | TGI [42] | TGI [43] | TGI [44] | TGI [45] | TGI [46] | TGI [47] | TGI [48] | TGI [49] | TGI [50] | TGI [51] | TGI [52] | TGI [53] | TGI [54] | TGI [55] | TGI [56] | TGI [57]
68.6 µM: TGI [2]

CC1CCc2sc3[nH]c(=S)n(-c4ccccc4)c(=O)c3c2C1 (configuration not stated)
67.8 µM: TGI [10]
85.3 µM: TGI [34]
91 µM: TGI [50]
> 100 µM: TGI [1] | TGI [3] | TGI [4] | TGI [5] | TGI [6] | TGI [8] | TGI [9] | TGI [58] | TGI [11] | TGI [12] | TGI [14] | TGI [15] | TGI [16] | TGI [17] | TGI [18] | TGI [19] | TGI [20] | TGI [21] | TGI [22] | TGI [23] | TGI [24] | TGI [25] | TGI [26] | TGI [27] | TGI [28] | TGI [29] | TGI [30] | TGI [31] | TGI [32] | TGI [33] | TGI [35] | TGI [36] | TGI [37] | TGI [38] | TGI [39] | TGI [40] | TGI [41] | TGI [42] | TGI [45] | TGI [46] | TGI [47] | TGI [48] | TGI [49] | TGI [59] | TGI [51] | TGI [52] | TGI [53] | TGI [54] | TGI [55] | TGI [56] | TGI [57]
93.7 µM: TGI [44]

O=C1C(NCCN2CCOCC2)=C(Cl)C(=O)c2ncccc21
5.69 µM: TGI [28]
1.71 µM: TGI [31]
1.52 µM: TGI [12]
2.31 µM: TGI [4]
1.73 µM: TGI [22]
2.61 µM: TGI [20]
2.79 µM: TGI [58]
0.377 µM: TGI [39]
1.6 µM: TGI [1]
2.75 µM: TGI [49]
1.11 µM: TGI [44]
1.9 µM: TGI [23] | TGI [37]
3.64 µM: TGI [29]
2.77 µM: TGI [42]
3.98 µM: TGI [2]
5.76 µM: TGI [15]
3.18 µM: TGI [36]
3.36 µM: TGI [3]
2.78 µM: TGI [53]
2.35 µM: TGI [50]
2.57 µM: TGI [5]
1.1 µM: TGI [7] | TGI [46]
5.48 µM: TGI [34]
1.4 µM: TGI [40]
1.14 µM: TGI [11] | TGI [24]
2.17 µM: TGI [9] | TGI [56]
2.23 µM: TGI [54]
3.63 µM: TGI [14]
2.95 µM: TGI [17]
2.33 µM: TGI [57]
0.168 µM: TGI [13]
0.346 µM: TGI [27]
1.95 µM: TGI [38]
1.01 µM: TGI [51]
2.73 µM: TGI [30] | TGI [47]
2.74 µM: TGI [48]
3.37 µM: TGI [41]
0.343 µM: TGI [26]
2.53 µM: TGI [43]
2.99 µM: TGI [45]
4.71 µM: TGI [25]
1.94 µM: TGI [10]
3.3 µM: TGI [59]
0.928 µM: TGI [21]
2.87 µM: TGI [16]
2.3 µM: TGI [18]
3.14 µM: TGI [52]
